One series concerns UTI89 biofilm. Kind of series: UTI89 type 1 dependent biofilm formation (inhibition/prevention) assay on PVC, crystal violet. To be noted: for IC50: Escherichia coli, read-out: Biofilm Prevention IC50. In kind it is cell-based, uropathogenic E. coli UTI89. An outline of the steps: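 Prevention: UTI89 grown in LB in PVC wells at 23° C with mannoside at varying concentrations for 48 h, then crystal violet stained and quantified. Disruption: 24 h UTI89 biofilm, mannoside added, grown 16 h more, then crystal violet.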

Series [1] concerns UTI89. Kind of series: Mouse UTI model, bladder bacterial titers (CFU). Particulars: 6 hours post-infection. In kind it is in vivo, E. coli (UPEC); host C3H/HeN mouse. The protocol:
For mannoside treatment, bacteria were incubated with 1 mM ZFH56 prior to inoculation. Every 24 h for 3 days, mice were transurethrally inoculated with 1 mM ZFH56. For antibiotic treatment, mice were inoculated with UTI89 and immediately given antibiotics in the drinking water for 3 days. Antibiotics used were trimethoprim-sulfamethoxazole (SXT) at […], respectively. For dual treatment, bacteria were incubated with 1 mM ZFH56 prior to inoculation. Every 24 h for 3 days, mice were transurethrally inoculated with 1 mM ZFH56. Additionally, mice were immediately given antibiotics in the drinking water for 3 days as in the antibiotic only treatment. Urine was collected every day for 13 days. At 2 weeks, mice were sacrificed and bladders were titered.
UTI89 biofilm was grown in LB+/− mannoside for 24 h at 22° C. in PVC plates and quantitated using crystal violet. UTI89 biofilm for confocal microscopy was grown in LB for 24 h at 22° C. on PVC coverslips. Mannoside was then added and biofilm was grown for an additional 16 h. Coverslips were then washed in PBS, fixed in 2% paraformaldehyde and stained with SYTO9 prior to confocal microscopy. For all animal experiments UTI89 or PBC-1 was grown 2×24 h statically in LB at 37° C. and inoculated at a dose of 1×10^7 bacteria in 50 μl. All mice used were female C3H/HeN (Jackson). For the pretreatment studies, bacteria were incubated with mannoside for 20 min prior to inoculation into the mouse. […] For CFU counts, bladders were harvested at 6 hpi and placed in 1 mL PBS. Bladders were then homogenized, diluted and plated on LB. After growth at 37° C. overnight, bacterial counts were determined. LacZ staining and gentamicin protection assays were performed at 6 hpi. […] Water was changed daily with fresh antibiotics. Standard growth curve assays and hemagglutination assays were performed with TMP-SMZ. All statistical analysis performed was a two-tailed Mann-Whitney U test.
Animal infections. Bacteria were grown under type 1 pili-inducing conditions (2×24 h at 37° C. statically in LB). The bacteria were harvested and resuspended to an OD600 of 0.5 in PBS. Eight-week-old C3H/HeN (Harlan) female mice were anesthetized by inhalation of isoflurane and infected via transurethral catheterization with 50 μl of the bacterial suspension, resulting in 1-2×10^7 inoculum. At 6 hpi, mice were sacrificed by cervical dislocation under anesthesia and the bladders were immediately harvested and processed as described below. All animal studies using mice were approved by the Animal Studies Committee of Washington University (Animal Protocol Number 20100002).
Bladder tissue bacterial titer determination. Mannoside ZFH-2056 was administered either IP (5 mg/kg) or orally (100 mg/kg) 30 min prior to inoculation with UTI89. […]

The format of series [2] is in vitro ADME. Particulars: 64800 sec, […], pH 7.4. As to the method:
Materials. The assay was carried out using Multiscreen PVDF 96-well plates (Millipore, Billerica, Mass.) using the company's Transporter Receiver Plate. The lipid (dioleyoylphosphotidylcholine (DOPC):Stearic Acid (80:20, wt %) in dodecane was obtained from Avanti Polar lipids (Alabaster, Ala.). Hank's Buffered Salt Solution (HBSS), pH 7.4 was obtained from MediaTech (Manassas, Va.).
Methods. Each of the test compounds was diluted to 2.5 mM in DMSO (Sigma, St Louis, Mo.) and further diluted prior to testing to 2.5 μM in HBSS, pH 7.4. The assay was performed using a Millipore 96-well Multiscreen-IP PAMPA plate, 5 μl of the lipid suspension was directly added to the PVDF membrane of the filter plate. Immediately following the addition of the lipid to the membrane, 200 μl of HBSS solution containing the test compound was added to the donor (upper) chamber. HBSS (300 μl) is also added to the receiver plate and the filter and receiver plates assembled and incubated overnight at room temperature in a moistened sealed bag to prevent evaporation. The concentration in the receiver plate as well as an equilibrium plate, that represents a theoretical, partition-free sample, was determined by HPLC-tandem mass spectrometry. Analysis of each compound was performed in triplicate.
Analysis. Analysis of both the acceptor and equilibrium samples were performed using an AB 3200 triple quadripole mass spectrometer linked to a Shimadzu DGU-20A HPLC with a Prevail C18 column (3 μm, 2.1×10 mm) with a flow rate of 0.35 ml/min. The mobile phase used was A: 0.1% Formic Acid in water, B: 0.1% Formic Acid in methanol. The elation gradient method is described in the table. Data acquisition and peak height determination was performed using Analyst v.1.4.2.
Calculations. The login of the effective permeability (LogPe) was calculated using the following equation
[formula] [formula] Where the drug concentration is the peak areas for the analyte and VD and VA is the volume of the donor and acceptor compartment respectively. The area is the surface area of the PVDF membrane (0.11 cm^2) and time is the incubation in seconds (64,800 sec). Each value is the mean of triplicates performed on the same day.

The target of another series is FimH (Escherichia coli, UniProt Q1R2J4). To be noted: for HAI Titer EC>50: Table 21.
For series [3], the target named is T1, FimH lectin domain (residues 1-158 of UPEC J96 FimH) (Escherichia coli, UniProt P08191).
T1 construct: made in house
In kind it is binding. Particulars: Table 21. The protocol:
DSF measures the melting temperature change of protein when binding to small molecules. Melting temperature shifts are proportional to the free energy of binding, and melting temperatures increase even as ligand concentration exceeds the Kd.
FimH lectin domain (residues 1-158 of UPEC J96 FimH, without an affinity tag) was purified as described previously. Five micrograms FimH in 5 μl HBS were mixed with HBS to yield a final volume of 50 μl containing compound at a final concentration of 100 μM and a “5×” final concentration of SYPRO Orange (sold as a “5000×” stock in DMSO and mixed with HBS to a working stock of 50× immediately before use: Life Technologies Inc.; Grand Island, N.Y.). Compounds were diluted to 100 μM from stocks in DMSO and compared to matched control wells with FimH alone plus 0.2% DMSO. 50 μl reactions were placed in 96-well clear-bottom PCR plates and subjected to a melt curve from 20-90° C. in 0.5° C. increments of 15 seconds each followed by a fluorescence read of the “HEX” channel in a Bio-Rad CFX96 thermocycler (Bio-Rad, Hercules, Calif.). Melt curves were fitted to the Boltzmann equation to determine the melting temperature (Tm) (y=A2+(A1−A2)/(1+exp((x−x0)/dx)) where x0 is the Tm) using OriginPro 8 (OriginLab, Northampton Mass.).

Series [4] relates to UTI89. Kind of series: Enumeration of bladder IBCs by LacZ staining in infected mice. In kind it is in vivo, E. coli (UPEC); host C3H/HeN mouse. Particulars: 6 hours post-infection. The protocol: After invasion, UPEC are able to rapidly replicate to form IBCs, thus dramatically expanding in numbers. After maturation of the IBC, bacteria are able to disperse from the biomass and spread to neighboring cells to expand the buildup in bacterial numbers via next generation IBC. The ability of mannosides to block IBC formation was evaluated based on LacZ staining of whole mount bladders, a protocol developed to enumerate IBCs. Whole bladder titers were also determined by quantifying colony forming units (CFUs) at 6 hours post-infection and later time points as test compounds were further developed.
Enumeration of bladder IBCs. For bacterial pretreatment experiments, mannoside was added to the bacterial suspension and incubated for 20 min. For animal pretreatment experiments, mannoside ZFH-2056 was administered either IP (5 mg/kg) or orally (100 mg/kg) 30 min prior to inoculation with UTI89. To accurately count the number of IBCs, mice were sacrificed 6 hpi and bladders were aseptically removed, bisected, splayed on silicone plates and fixed in 2% paraformaldehyde (v/v). IBCs, readily discernable as punctate violet spots, were quantified by LacZ staining of whole bladders.
For animal pretreatment experiments, mannoside ZFH-2056 was administered either IP (5 mg/kg) or orally (100 mg/kg) 30 min prior to inoculation with UTI89. To accurately count the number of IBCs, mice were sacrificed 6 hpi and bladders were aseptically removed, bisected, splayed on silicone plates and fixed in 2% paraformaldehyde (v/v). IBCs, readily discernable as punctate violet spots, were quantified by LacZ staining of whole bladders.

Series [5] has as its system UTI89. Kind of series: Ex vivo gentamicin protection assay of infected mouse bladders (luminal vs intracellular bacteria). It counts as in vivo, E. coli (UPEC); host mouse. Particulars: 1 hour post-infection, bacteria inoculated in presence of mannoside. An excerpt:
Based on the extensive elucidation of the UPEC pathogenic cascade, critical nodes in pathogenesis that mannosides would target and thereby have powerful and potent therapeutic ramifications were identified. The first step in the UPEC pathway involves FimH-mediated colonization of the bladder epithelium via the recognition of mannose receptors. Bacterial invasion into superficial bladder umbrella cells can then ensue. […] To test this, a well-established gentamicin protection assay that allows the determination of the luminally bound fraction versus the intracellular fraction was utilized (FIG. 10). […] This may be due to contamination from bacteria in the urine or bacteria that are non-specifically associated with the epithelium. In any case, blocking invasion blocks the ability of the bacteria to rapidly expand in numbers. This is due to the ability of the mannosides to block the IBC mechanism.
Gentamicin protection assay. To enumerate bacteria present in the intracellular versus extracellular compartments, bladders were aseptically harvested at 6 hpi. The bladders were then bisected twice and washed three times in 500 μl of PBS each. The wash fractions were pooled, lightly spun at 500 rpm for 5 min to pellet exfoliated bladder cells, serially diluted, and plated onto LB agar to obtain the luminal fraction. The bladders were treated with 100 μg of gentamicin/ml for 90 min at 37° C. After treatment, the bladders were washed twice with PBS to eliminate residual gentamicin, homogenized in 1 ml of PBS, serially diluted, and plated onto LB agar to enumberate the CFUs in the intracellular fraction.
To enumerate bacteria present in the intracellular versus extracellular compartments, bladders were aseptically harvested at 6 hpi. The bladders were then bisected twice and washed three times in 500 μl of PBS each. The wash fractions were pooled, lightly spun at 500 rpm for 5 min to pellet exfoliated bladder cells, serially diluted, and plated onto LB agar to obtain the luminal fraction. The bladders were treated with 100 μg of gentamicin/ml for 90 min at 37° C. […]

Setting [6] is: UTI89 inoculated in presence of pilicide.

Each structure is given as a SMILES string. Entries after “also recorded” stand apart in the source; their conditions may differ. Like-named read-outs stand apart in the source and are kept apart here.
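Wherever HAI Titer EC>50 is given: hemagglutination inhibition of guinea pig erythrocytes agglutinated by type 1 piliated uropathogenic E. coli via FimH mannose binding, quantified through serial dilutions of compound.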
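Wherever HAI Titer EC>90 is given: hemagglutination inhibition of guinea pig erythrocytes agglutinated by type 1 piliated uropathogenic E. coli via FimH mannose binding, quantified through serial dilutions of compound.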

Turning to `CCCCCCCO[C@H]1O[C@H](CO)[C@@H](O)[C@H](O)[C@@H]1O` [heptyl mannose], in the series with UTI89 biofilm (1 mM), the “inhibition of UPEC biofilm formation in vitro” value is “inhibited UPEC biofilm formation”. In addition, the “virulence / bladder bacterial load” value in the series with UTI89 [1] (UTI89 incubated with 5 mM compound before inoculation) was “significant attenuation of virulence; also recorded: reduction of bacterial load in the bladder”.
Broadly, the IC50 is the point on the concentration scale where inhibition reaches its midpoint. On to `CNC(=O)c1cccc(-c2ccc(OC3O[C@@H](CO)[C@@H](O)[C@H](O)[C@H]3O)c(C)c2)c1` (stereo partly drawn) [Compound 4ZFH269, N-methyl-3-[3-methyl-4-[(3R,4S,5S,6S)-3,4,5-trihydroxy-6-(hydroxymethyl)tetrahydropyran-2-yl]oxy-phenyl]benzamide], for which, in the series with UTI89 biofilm, the IC50 is 159 nM. Besides, the “PAMPA (LogPe)” value in series [2] is given as −3.89. Moreover, the “HAI Titer EC>90” value on FimH is 0.062 µM; at FimH (Table 22, ZFH/JWJ codes), 0.062 µM. Also, the “HAI Titer EC>50” value at FimH (ZFH/JWJ codes) stood at 0.06 µM. Also, the “DSF Melting Temp.” value in series [3] stood at 74.46 C.
As for `CNC(=O)c1cc(C(=O)NC)cc(-c2ccc(OC3O[C@@H](CO)[C@@H](O)[C@H](O)[C@H]3O)c(C(F)(F)F)c2)c1` (stereo partly drawn) [Compound 1JWJ149, N1,N3-dimethyl-5-[3-(trifluoromethyl)-4-[(3R,4S,5S,6S)-3,4,5-trihydroxy-6-(hydroxymethyl)tetrahydropyran-2-yl]oxy-phenyl]benzene-1,3-dicarboxamide], in the series on UTI89 biofilm, the IC50 is 43 nM. Moreover, the “PAMPA (LogPe)” value in series [2] is reported as −6.27. In addition, the “HAI Titer EC>90” value at FimH amounted to 0.008 µM; on FimH (Table 22, ZFH/JWJ codes), 0.008 µM. For the same compound, at FimH (ZFH/JWJ codes), the “HAI Titer EC>50” value came out at 0.008 µM. For the same compound, the “DSF Melting Temp.” value in series [3] amounted to 76.15 C.
Turning to `NC(=O)c1cccc(OC2OC(CO)C(O)C(O)C2O)c1` (stereo not drawn) [Compound 2ZFH98, 3-[3,4,5-trihydroxy-6-(hydroxymethyl)tetrahydropyran-2-yl]oxybenzamide], the IBCs result with UTI89 [4] (0.1 mM mannoside) and in the series on UTI89 [4] (1 mM mannoside) was “significantly reduced IBCs” throughout. Also, the “HAI Titer EC>90” value at FimH is 16.000 µM. The “bladder CFUs / colonization” value in the series on UTI89 [1] (1 mM mannoside treated bacteria) is reported as “significantly reduced colonization”. Further, the intracellular bacteria result with UTI89 [5] is on record as “significant decrease”.
Take `O=C(O)[C@@H]1CSc2c(-c3cccc(C(F)(F)F)c3)c(Cc3cccc4ccccc34)cc(=O)n21` [FN075, reference compound]: the “IBCs in the bladder” value in the series on UTI89 [4] (setting [6]) is “significant attenuation of virulence; also recorded: significantly less IBCs”. Besides, in the series on UTI89 [1] (setting [6]), the “bacterial load within the bladder” value was “significant attenuation of virulence; also recorded: significantly reduced bacterial load”.

The values are drawn from patent publication US8937167B2 (Washington University, priority 2009, dated 2015).
